The values that follow come from paper PMC7827014, “Synthetic Transition from Thiourea-Based Compounds to Tetrazole Derivatives: Structure and Biological Evaluation of Synthesized New N-(Furan-2-ylmethyl)-1H-tetrazol-5-amine Derivatives” (Molecules, 2021).

≈ marks a conversion by molar mass, not a printed value.

The subject of the test is M. tuberculosis INH resistant (Spec. 210). The test can be described thus: In vitro antitubercular MIC. Type of test: cell-based. The following applies: Mycobacterium tuberculosis, read-out: Minimal inhibitory concentration.
With `Fc1ccc(-n2nnnc2NCc2ccco2)cc1` [Compound 1, 1-(4-fluorophenyl)-N-(furan-2-ylmethyl)-1H-tetrazol-5-amine], the MIC was 256 µg/mL (≈ 987 µM).

In the case of `Cc1ccc(Cl)cc1-n1nnnc1NCc1ccco1` [Compound 2, 1-(5-chloro-2-methylphenyl)-N-(furan-2-ylmethyl)-1H-tetrazol-5-amine], the MIC stood at 512 µg/mL (≈ 1770 µM).

For `Ic1ccc(-n2nnnc2NCc2ccco2)cc1` [Compound 3, N-(furan-2-ylmethyl)-1-(4-iodophenyl)-1H-tetrazol-5-amine], the MIC worked out at 512 µg/mL (≈ 1390 µM).

Take `Clc1cccc(-n2nnnc2NCc2ccco2)c1` [Compound 4, 1-(3-chlorophenyl)-N-(furan-2-ylmethyl)-1H-tetrazol-5-amine]: the MIC stood at 256 µg/mL (≈ 929 µM).

As to `Clc1ccc(-n2nnnc2NCc2ccco2)cc1Cl` [Compound 5, 1-(3,4-dichlorophenyl)-N-(furan-2-ylmethyl)-1H-tetrazol-5-amine], the MIC was greater than 512 µg/mL.

Regarding `Fc1ccccc1-n1nnnc1NCc1ccco1` [Compound 6, 1-(2-fluorophenyl)-N-(furan-2-ylmethyl)-1H-tetrazol-5-amine], the MIC came to 256 µg/mL (≈ 987 µM).

For the compound `Brc1cccc(-n2nnnc2NCc2ccco2)c1` [Compound 7, 1-(3-bromophenyl)-N-(furan-2-ylmethyl)-1H-tetrazol-5-amine], the MIC came to 256 µg/mL (≈ 800 µM).

On to `Clc1ccc(-n2nnnc2NCc2ccco2)cc1` [Compound 8, 1-(4-chlorophenyl)-N-(furan-2-ylmethyl)-1H-tetrazol-5-amine], for which the MIC is 256 µg/mL (≈ 929 µM).

Regarding `Fc1cccc(-n2nnnc2NCc2ccco2)c1` [Compound 9, 1-(3-fluorophenyl)-N-(furan-2-ylmethyl)-1H-tetrazol-5-amine], the MIC came out at 256 µg/mL (≈ 987 µM).

As for `Brc1ccc(-n2nnnc2NCc2ccco2)cc1` [Compound 10, 1-(4-bromophenyl)-N-(furan-2-ylmethyl)-1H-tetrazol-5-amine], the MIC was 512 µg/mL (≈ 1600 µM).

On to `Clc1ccccc1-n1nnnc1NCc1ccco1` [Compound 11, 1-(2-chlorophenyl)-N-(furan-2-ylmethyl)-1H-tetrazol-5-amine], for which the MIC was determined as 256 µg/mL (≈ 929 µM).

For `Brc1ccccc1-n1nnnc1NCc1ccco1` [Compound 12, 1-(2-bromophenyl)-N-(furan-2-ylmethyl)-1H-tetrazol-5-amine], the MIC is 256 µg/mL (≈ 800 µM).

For the compound `NNC(=O)c1ccncc1` [INH, isoniazid, reference compound], the MIC worked out at 2 µg/mL (≈ 14.6 µM).
